In a melting point compilation (Tetko et al.; mined from patent text by program, amines drawn as free bases though some values may be those of a salt):

| Structure (SMILES) | melting point |
| --- | --- |
| O=C(O)c1cccc(-c2cnn3c(O)ncnc23)c1 | > 300 °C |
| CC1(C)COC(c2ccc(Br)cc2)OC1 | 62 to 64 °C |
| C[C@H](OCc1cc2cc(Cl)ccc2n1S(=O)(=O)c1ccc2ncsc2c1)C(=O)O | 82 °C |
| O=C(c1ccncc1)c1cc(-c2ccc(Cl)cc2)c(N2CCOCC2)s1 | 117 °C |
| Cc1ccc2c(C3CCN(CC#N)CC3)cn(-c3ccc(F)cc3)c2c1 | 101 to 103 °C |
| Cn1nc(C(=O)Nc2ccc(OCC(C)(C)C)c(C#N)c2)cc1-c1ccccc1 | 156 to 157 °C |
| COc1cc2ncc(C#N)c(Nc3cccc(SC)c3)c2cc1OC | > 250 °C |
| CC(=O)OCCC1=CCC2C3CCC4=CCC=CC4(C)C3C(O)CC12C (stereo not drawn) | 203 to 205 °C |
| O=CC=Cc1cnn(-c2c(Cl)cc(C(F)(F)F)cc2Cl)n1 | 68 to 69 °C |
| COCOc1ccc(CO)c2cccc(C)c12 | 91 to 93 °C |
| Clc1cc(CBr)ccc1-c1ccccc1C1=NNN(C(c2ccccc2)(c2ccccc2)c2ccccc2)N1 | 15 to 60 °C |
| O=C(O)c1cccc(-c2ccc3c(c2)N(Cc2ccc(Cl)c(Cl)c2)CC3)c1 | 167 to 168 °C |
| CC1=NC(=Cc2ccc(F)cc2)C(=O)O1 | 156 °C |
| CCCc1nccn1Cc1ccc2c(c1)Cc1c(-c3ccsc3)n[nH]c1-2 | 113 to 117 °C |
| CCNC(=O)N1CCc2cc(S(=O)(=O)N3CC(c4ccccc4)NC3=O)ccc21 (stereo not drawn) | 127 °C |
| O=C(O)c1cnn2c(C(F)(F)F)cc(-c3ccc(C(F)(F)F)cc3)nc12 | 248 °C |
| NC(=O)NCc1ccc(CN(CC(=O)O)C(=O)[C@@H](CCCNC(N)=N[N+](=O)[O-])NC(=O)C(c2ccccc2)c2ccccc2)cc1 | 78 to 81 °C |
| CC1(C)CCC(C)(C)c2cc(C(=O)Nc3ccc(F)cc3)ccc21 | 163 to 165 °C |
| O=C(O)COc1cccc(CCc2nc(-c3ccccc3)c(-c3ccccc3)o2)c1 | 153 to 154 °C |
| O=C(NCCN1CCOCC1)Nc1nc2ccc(OC(c3c(Cl)cccc3Cl)C(F)(F)F)cc2s1 (stereo not drawn) | 150 to 160 °C |
| COc1nc2c(c3ccccc13)c1cc(Cl)ccc1n2C | 179 to 180 °C |
| O=C(CCC12CCC(=O)N1C(=O)CC2)OCc1ccccc1 | 80 to 82 °C |
| CC(Cc1cc(NC(=O)NCc2ccccc2)cc2ccoc12)NC(=O)OC(C)(C)C (stereo not drawn) | 167 to 168 °C |
| N#CC(=O)c1ccccc1CCl | 54.5 to 56.5 °C |
| CCOc1nc2ccccc2nc1NC(=O)N1CCN(c2cc(Cl)cc(Cl)c2)CC1 | 157 to 159 °C |
| O=C(Nc1ccc(O)cn1)C(CC1CCCC1)c1ccc(Cl)c(Cl)c1 (stereo not drawn) | 79 to 81 °C |

| Structure (SMILES) | melting point |
| --- | --- |
| CCCOc1ccccc1-c1nc2cc3ncn(CC4CCCCC4)c3cc2c(=O)[nH]1 | 223 to 226 °C |
| O=c1c2cc(F)c(F)cc2nc(C(S)c2ncnc3[nH]cnc23)n1-c1ccccc1Cl (stereo not drawn) | 208 °C |
| CC1(C2CCC3C4CCC5CC=CCC5(C)C4C(=O)CC32C)OCCO1 (stereo not drawn) | 130 to 135 °C |
| COc1ccc2c(c1)Nc1cccc(S(=O)(=O)N(C)C)c1S2 | 196 to 198 °C |
| CCCOCCn1c(CN2CCN(C)CC2)nc2ccccc21 | 73 to 75.5 °C |
| O=C(Nc1nnn[nH]1)c1csc(-c2ccco2)n1 | 275 to 277 °C |
| COC(=O)c1cc(F)c(F)c2ccc(C)nc12 | 99 to 101 °C |
| O=C(CCc1ccc(F)cc1)c1ccc(C(F)(F)F)cc1 | 66 to 67 °C |
| Fc1ccc2c(-c3ccc(OC[C@H]4CO4)cc3)noc2c1 | 132 to 133 °C |
| CC(C)CC[C@H](O)[C@H](CC1CCCCC1)NC(=O)[C@@H](N)Cc1c[nH]cn1 | 126 to 130 °C |
| COc1cccc(C(=O)P2(=O)Oc3ccccc3-c3ccccc32)c1 (stereo not drawn) | 116 to 118 °C |
| COc1cc(C)c(C(=O)c2c(Cl)cccc2Cl)c(O)c1OC | 161 °C |
| CC(C)(C)OC(=O)NCC[C@H]1CC[C@H](CO)CC1 | 75 to 76 °C |
| Nc1nc(Cl)c2ncn(COCCOC(=O)c3ccccc3)c2n1 | 130 to 134 °C |
| O=c1[nH]c2cc([N+](=O)[O-])cnc2n1-c1ccc2c(c1)OCO2 | 224 to 225 °C |
| CCC(=O)OC1(c2ccccc2)CCN(CCN2CNC(=O)c3ccccc32)CC1 | 141 to 144 °C |
| COc1cc(OC(=O)c2ccc(OC)c(C34CC5CC(CC(C5)C3)C4)c2)ccc1C(=O)O | 199 to 200 °C |
| COc1ccc([C@@H]2Sc3cc(Cc4ccc(F)cc4)ccc3N(CCN(C)C)C(=O)[C@@H]2OC(C)=O)cc1 | 154 to 156 °C |
| Nc1ccccc1NC(=O)c1cc2cccc(OCCO)c2o1 | 182 to 183 °C |
| O=[N+]([O-])c1cnn2c(-c3ccco3)ccnc12 | 235 to 237 °C |
| CN1CCN(c2cccc3c2C[C@H](NC(=O)c2ccc(C(F)(F)F)cc2)CC3)CC1 | 203 to 204 °C |
| C[C@H]1[C@@H](O)[C@H](Cc2ccccc2)C(=O)N1c1ccc(C#N)c(Cl)c1 | 99 to 101 °C |
| O=C(O)C1CCCN(C(=O)c2cccc(C(=O)C3CCC4(CCNCC4)CC3)c2)C1 (stereo not drawn) | 146 to 148 °C |
| COc1cccc(CN2Cc3cc(OC)c(OCc4ccccc4)cc3C(OC)C2)c1 (stereo not drawn) | 96 to 97 °C |
| CCC1(CC)NC(C)(COC(=O)C(C)(C)C)COC1=O (stereo not drawn) | 51 to 53 °C |
| O=C(O)c1c(OCc2ccccc2)c2ccccc2n1-c1ccccc1 | 140 to 142 °C |

| Structure (SMILES) | melting point |
| --- | --- |
| COCOCc1nc(-c2ccccc2)oc1CCc1ccc(O)cc1 | 102 to 103 °C |
| OCC1OC(n2c(Cl)nc3ccc(Cl)cc32)C(O)C1O (stereo not drawn) | 162 to 163 °C |
| O=C1NCCNC1c1ccc(F)cc1 (racemic) | 115 °C |
| O=C(CC1CCCCC1=O)c1ccc(Cl)cc1 (stereo not drawn) | 56 to 58 °C |
| NC(=O)CCc1cccc2c1C[C@@H](CCCCc1ccccc1)O2 | 92 to 93 °C |
| Cc1ccc2c(c1)CCOC2CCN1CCN(c2ccc(S(N)(=O)=O)cc2)CC1 (stereo not drawn) | 221 to 222 °C |
| N#CCCC1CN(C(=O)OCc2ccccc2)CCO1 (stereo not drawn) | 59 to 60 °C |
| Cc1cc(C)c([N+](=O)[O-])c(C)c1-c1n[nH]c2c(C#N)c(C(C)(C)C)nn12 | 265 to 266 °C |
| O=C1N(N2CCOCC2)c2ccccc2C1(Cc1ccnc(F)c1)c1ccccc1 (stereo not drawn) | 170 to 172 °C |
| N#CC1(N2C(=O)C3=C(CCCC3)C2=O)CCCCC1 | 55.5 to 56.5 °C |
| Clc1ccc(N2CCN(CCCc3c4c(nn3-c3ccccn3)CCCC4)CC2)cc1 | 101 to 103 °C |
| Cc1cc(C)n2nc(NS(=O)(=O)c3cc(Cl)ccc3Cl)nc2n1 | 216 to 218 °C |
| O=C(NCCc1cccc(-c2nc(=O)c3ccccc3s2)n1)c1ccccc1 | 202 to 203 °C |
| CC(C)COC(=O)N1CCN(c2nc3cccccc-3n2)CC1 | 130 to 133 °C |
| OC(CNC1CC1)c1cccc(Cl)c1 (stereo not drawn) | 71.3 to 73.2 °C |
| OCC1CN(C(c2ccccc2)c2ccccc2)C1 | 114 to 116 °C |
| Cc1ccc(C(=O)C2(O)CCCCC2)cc1C | 103 to 104 °C |
| O=P(NP(=S)(Oc1ccccc1)Oc1ccccc1)(Oc1ccccc1)Oc1ccccc1 | 103 to 105 °C |
| CCCC(C)(O)C(=O)Nc1ccnc(Br)c1 (stereo not drawn) | 102 °C |
| CCONC(CC)=C1C(=O)CC(C(C)(C)Sc2ccc(C)cc2)CC1=O (stereo not drawn) | 77.5 to 79 °C |
| COC(=O)c1ccccc1OCNC(=O)CCCCCNC(=O)OC(C)(C)C | 120 to 121 °C |
| COc1cccc2c1CCCC2=NNc1nc(-c2ccc(F)cc2)cs1 | 198 °C |
| CCCCc1nc(C(C)=O)c(C#N)[nH]1 | 77 to 78 °C |
| CCOC(=O)c1ncc2[nH]c3ccc(Oc4ccc(OC)cc4)cc3c2c1COC | 154 °C |
| Cc1ccc(-c2csc3nc(C)c(CCCl)c(=O)n23)cc1 | 152 to 165 °C |
| COCc1c(C)ccc(C(O)=S)c1C | 192 to 194 °C |

| Structure (SMILES) | melting point |
| --- | --- |
| O=C1NC(=O)N2C(c3ccccc3)SC[C@@H]12 (stereo partly drawn) | 177 to 179 °C |
| CCCCOc1ccc(-c2ccc3c(c2)C=C(C(=O)Nc2ccc(C(O)c4ccccn4)cc2)CCS3(=O)=O)cc1 (stereo not drawn) | 142 to 145 °C |
| CCCCC(=O)c1[nH]c(=O)[nH]c1C | 222 to 224 °C |
| O=C(NCCc1c[nH]c2ccccc12)C1CCCCC1 | 98 to 99 °C |
| CCCCNc1nc(-c2ccc(=O)n(C)n2)c(-c2ccccc2)nc1N | 253 to 255 °C |
| CC(=O)NC[C@@H]1C[C@H]1c1c(F)ccc2nn(C)cc12 (relative stereo) | 120 °C |
| COC(=O)c1cnn(C)c1C(=O)Nc1ccn2nc(-c3cccnc3)nc2c1 | 228 to 231 °C |
| CSc1cc(C)nc(SC)c1NC(=O)CCCCSc1nc2ccccc2o1 | 147 to 150 °C |
| COc1n[nH]c(=O)n1C | 146 °C |
| O=c1[nH]c(CCl)nc2cc3c(cc12)CCC3 | 270 to 272 °C |
| COC(=O)c1cc(N)c(Oc2ccccc2)c(N2C(=O)CCC2=O)c1 | 199 to 200 °C |
| CS(=O)(=O)c1ccc(-c2cnn(-c3cc(F)cc(F)c3)c(=O)c2-c2ccc(F)cc2)cc1 | 166 to 168 °C |
| O=C(/C=C/c1ccc(C(F)(F)F)cc1Br)Nc1ccc2ncsc2c1 | 214 to 215 °C |
| CN(O)C(=O)C(=Cc1ccc2ccccc2c1)c1ccc(Br)cc1 | 118 to 120 °C |
| COC(=O)c1ccc(OCCCCC2Cc3c(c(OC)c(OC)c(OC)c3OC)C2)cc1 | 68 to 71 °C |
| CS(=O)(=O)c1nc(Cl)cc(OCc2ccccc2)n1 | 74 to 77 °C |
| CCOc1cc(F)ccc1C(=O)c1ccc(OC)c(Cl)c1Cl | 107 to 109 °C |
| NCC(=O)Nc1ccc([N+](=O)[O-])cc1C(=NO)c1ccccc1F | 198 °C |
| CCCCNc1c(CO)cnc2c1cnn2CC | 60 to 72 °C |
| O=C1c2ccccc2C(=O)N1CC1Cc2ccc3c(c2O1)CCC3 (stereo not drawn) | 131 to 135 °C |
| CN1C(=O)CC[C@]2(C)c3ccc(-c4ccc(O)c(F)c4)cc3CC[C@@H]12 | > 240 °C |
| CNC(=O)Nc1ccc(OCC2CCN(c3ccncc3)CC2)cc1 | 222 to 224 °C |
| Nc1nc2ccccc2c2c1ncn2COCCO | 210 to 212 °C |
| CCCCNC(=O)Oc1c(C)cc(Oc2ccc(C)cc2)cc1C | 110 to 112 °C |
| CC(=O)Oc1c(C)cc(C=CC(=O)Nc2cnc3c(C)cc(C)cc3c2-c2ccccc2Cl)cc1C | 207 to 208 °C |
